Reference: PMC8400042, “Selective DNA Gyrase Inhibitors: Multi-Target in Silico Profiling with 3D-Pharmacophores” (Pharmaceuticals, 2021)
pIC50, pKd: −log10 of the molar value. Read-outs that look alike come from different tables or passages of the source.

How the values were obtained:
[1] = molecular target: T1, human DNA topoisomerase IIα (Homo sapiens, UniProt P11388); experiment: human DNA topoisomerase IIα DNA relaxation assay (Inspiralis); format: biochemical; conditions: for pIC50: DNA relaxation assay, read-out: Human TopoII IC50; for inhibition of TopoII (in words): concentrations up to 100 μM
T1 construct: purchased Inspiralis
T1 sequence (P11388 whole entry): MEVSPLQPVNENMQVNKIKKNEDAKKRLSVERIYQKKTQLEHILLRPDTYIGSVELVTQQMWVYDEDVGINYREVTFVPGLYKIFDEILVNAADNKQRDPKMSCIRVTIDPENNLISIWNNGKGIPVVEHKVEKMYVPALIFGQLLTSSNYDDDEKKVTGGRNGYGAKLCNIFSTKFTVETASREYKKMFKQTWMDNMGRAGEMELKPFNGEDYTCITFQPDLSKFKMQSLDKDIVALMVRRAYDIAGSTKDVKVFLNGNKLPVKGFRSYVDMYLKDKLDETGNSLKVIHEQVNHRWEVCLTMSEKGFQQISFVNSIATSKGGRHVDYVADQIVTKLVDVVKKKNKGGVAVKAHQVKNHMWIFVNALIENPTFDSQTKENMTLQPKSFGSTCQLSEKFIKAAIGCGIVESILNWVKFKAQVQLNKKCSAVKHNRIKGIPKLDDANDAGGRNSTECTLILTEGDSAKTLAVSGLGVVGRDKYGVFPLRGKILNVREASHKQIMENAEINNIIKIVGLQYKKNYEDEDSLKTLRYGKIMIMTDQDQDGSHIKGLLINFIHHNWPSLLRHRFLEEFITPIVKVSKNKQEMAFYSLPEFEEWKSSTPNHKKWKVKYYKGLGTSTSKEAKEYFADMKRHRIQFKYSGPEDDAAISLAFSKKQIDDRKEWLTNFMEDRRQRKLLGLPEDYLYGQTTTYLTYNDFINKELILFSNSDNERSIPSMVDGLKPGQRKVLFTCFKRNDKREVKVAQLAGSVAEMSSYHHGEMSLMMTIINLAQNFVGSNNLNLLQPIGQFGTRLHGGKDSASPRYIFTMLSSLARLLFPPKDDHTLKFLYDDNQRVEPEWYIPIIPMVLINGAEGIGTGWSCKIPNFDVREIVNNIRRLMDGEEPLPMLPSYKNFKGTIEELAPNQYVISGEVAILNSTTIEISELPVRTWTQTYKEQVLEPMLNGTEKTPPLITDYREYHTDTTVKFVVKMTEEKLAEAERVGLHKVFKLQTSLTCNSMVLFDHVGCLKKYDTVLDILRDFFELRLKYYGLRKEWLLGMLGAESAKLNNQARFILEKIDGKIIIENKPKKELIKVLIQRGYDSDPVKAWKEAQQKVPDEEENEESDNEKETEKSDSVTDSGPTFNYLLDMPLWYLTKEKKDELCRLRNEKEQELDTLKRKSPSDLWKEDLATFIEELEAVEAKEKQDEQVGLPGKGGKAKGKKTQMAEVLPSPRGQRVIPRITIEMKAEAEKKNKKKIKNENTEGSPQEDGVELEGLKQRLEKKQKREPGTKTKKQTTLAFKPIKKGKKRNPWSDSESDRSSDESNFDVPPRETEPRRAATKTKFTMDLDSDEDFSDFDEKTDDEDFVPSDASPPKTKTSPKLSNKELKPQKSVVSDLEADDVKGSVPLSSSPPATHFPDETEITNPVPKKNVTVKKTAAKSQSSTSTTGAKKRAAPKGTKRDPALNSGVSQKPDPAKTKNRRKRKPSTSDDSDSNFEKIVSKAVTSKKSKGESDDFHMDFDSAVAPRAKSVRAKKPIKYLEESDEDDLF
Description: Inhibitory activities were determined in an assay from Inspiralis on streptavidin-coated 96-well microtitre plates from Thermo Scientific Pierce. […] After washing off the unbound oligonucleotide, the enzyme assay was performed. […] Reaction solutions were incubated at 37 °C for 30 min. After that, the TF buffer (50 mM NaOAc, 50 mM NaCl, and 50 mM MgCl2, pH 5.0) was added to terminate the enzymatic reaction. After additional incubation for 30 min at RT, during which biotin–oligonucleotide–plasmid triplex was formed, the unbound plasmid was washed off using TF buffer, and Diamond Dye in T10 buffer (10 mM Tris·HCl, 1 mM EDTA, pH 8.0) was added. […] Initial screening was done at 100 or 10 μM concentrations of inhibitors. […] GraphPad Prism 6 software was used to calculate the IC50 values. The results are reported as the average value of three independent measurements.

E. coli DNA gyrase [2] = molecular target: T2, E. coli DNA gyrase (Escherichia coli, UniProt P0AES6); experiment: DNA supercoiling assay (Inspiralis); format: biochemical
T2 construct: purchased Inspiralis
Description: The DNA supercoiling assay from Inspiralis for the determination of IC50 values was performed according to previously reported procedures.

human Hsp90α NTD [3] = molecular target: T3, human Hsp90α NTD (Homo sapiens, UniProt P07900); experiment: fluorescence-based thermal shift assay (FTSA), binding to Hsp90; conditions: for pKd: FTSA
T3 construct: Production and purification of recombinant Hsp90α NTD have been described previously; made in house
Description: Production and purification of recombinant Hsp90α NTD have been described previously. The molecular weight of the protein has been confirmed by high-resolution mass spectrometry, purity by SDS-PAGE, and the concentration was determined by UV-VIS spectrophotometry at 280 nm. The synthesis, chemical structure determination, and purity of compounds 1-7 have been previously described.
Compound binding to Hsp90 was determined by the fluorescence-based thermal shift assay (FTSA) which determines the thermal stability of the free and ligand-bound protein [61, 62, 63]. The stabilization efficiency is directly related to the ligand-binding affinity. The experiments were carried out with Corbett Rotor-Gene 6000 (QIAGEN Rotor-Gene Q) spectrofluorimeter (using excitation 365 ± 20 nm and detection at 460 ± 15 nm). Protein solutions in the presence of various concentrations of a compound were heated from 25 to 95 °C at a rate of 1 °C/min. Protein unfolding was monitored by measuring the fluorescence of 8-anilino-1-naphthalenesulfonate (ANS) dye at added 50 μM concentration. Increasing concentration of a compound shifted the protein denaturation temperature increasingly upwards depending on the binding affinity. Samples contained 5 μM protein, ligand concentration ranging from 0 to 200 μM, […] (pH 7.5) containing […] and 2% DMSO. Protein melting temperatures were determined by fitting the fluorescence curves while the compound dosing curves were simulated as described previously. All experiments were repeated at least twice.

E. coli DNA gyrase [4] = molecular target: T2, E. coli DNA gyrase; conditions: cited from earlier work
human Hsp90α NTD [5] = molecular target: T3, human Hsp90α NTD; experiment: fluorescence-based thermal shift assay (FTSA), binding to Hsp90; conditions: concentrations up to 100 μM
human Hsp90α NTD [6] = molecular target: T3, human Hsp90α NTD; conditions: cited from earlier work
[7] = test system: Hsp90 C-terminal domain (CTD); parameters: method as in PMID 10945979, PMID 10655441; conditions: cited from earlier work
human TopoII = test system: human TopoII; parameters: method as in PMID 2537141; conditions: cited from earlier work
[8] = DNA supercoiling assay, read-out: E. coli DNA gyrase IC50

For COc1ccc(-c2snnc2-c2cc(Cl)c(O)cc2O)cc1 [Compound 3], the “activity at TopoII in vitro (in words)” value [1] was “no inhibition”, the pIC50 [1] was < 4.00 and the pIC50 (E. coli DNA gyrase [2]) was < 4.00. For the same compound, the “activity at GyrB / DNA gyrase in vitro (in words)” value (from here on “activity at GyrB / DNA gyrase”) (E. coli DNA gyrase [2]) was “no inhibition”.
For O=c1nc(SCc2cc(F)cc(C(F)(F)F)c2)nc(SCc2ccc(Cl)cc2)[nH]1 [Compound 6], the “activity at Hsp90 in vitro (in words)” value (human Hsp90α NTD [3]) was “inactive”, the pKd (human Hsp90α NTD [3]) was < 4.00 and the “activity at GyrB / DNA gyrase” value (E. coli DNA gyrase [2]) was “inactive”. For the same compound, the pIC50 (E. coli DNA gyrase [2]; [8]) was < 4.00.
In the case of Cc1[nH]c(C(=O)N[C@H]2CCc3nc(NC(=O)CC(=O)O)sc3C2)c(Br)c1Br [Compound 2], the pIC50 (E. coli DNA gyrase [4]; DNA supercoiling assay, read-out: Escherichia coli DNA gyrase IC50) is given as > 7.00, the pIC50 (E. coli DNA gyrase [4]; read-out: E. coli DNA gyrase IC50) is given as 7.70 and the “activity at Hsp90 in vitro (in words)” value (human Hsp90α NTD [3]) is given as “inactive”. The pKd (human Hsp90α NTD [3]) was < 4.00, the “activity at TopoII in vitro (in words)” value [1] was “inactive” and the pIC50 [1] was < 4.00. The “inhibition of TopoII (in words)” value [1] was “devoid of activity” and the “binding to Hsp90α NTD (in words)” value (human Hsp90α NTD [5]) was “devoid of activity”.
For O=C(O)C(=O)Nc1ccc2nc(NC(=O)c3cc(Cl)c(Cl)[nH]3)sc2c1 [Compound 1], the “activity at Hsp90 in vitro (in words)” value (human Hsp90α NTD [3]) was “inactive”, the pKd (human Hsp90α NTD [3]) was < 4.00 and the “activity at TopoII in vitro (in words)” value [1] was “inactive”. The pIC50 [1] was < 4.00, the “inhibition of TopoII (in words)” value [1] was “devoid of activity” and the “binding to Hsp90α NTD (in words)” value (human Hsp90α NTD [5]) was “devoid of activity”.
For CC(C)Cc1cc(-c2nnsc2-c2ccccc2)c(O)cc1O [Compound 4], the “activity at TopoII in vitro (in words)” value [1] is given as “no inhibition”, the pIC50 [1] is given as < 4.00 and the pKd (human Hsp90α NTD [6]) is given as 8.18. For the same compound, the “activity at GyrB / DNA gyrase” value (E. coli DNA gyrase [2]) was “no inhibition” and the pIC50 (E. coli DNA gyrase [2]; [8]) was < 4.00.
In the case of NS(=O)(=O)c1c(F)c(F)c(SCCO)c(F)c1NC1CCCCCCC1 [Compound 7], the “activity at Hsp90 in vitro (in words)” value (human Hsp90α NTD [3]) was “inactive”, the pKd (human Hsp90α NTD [3]) was < 4.00 and the “activity at TopoII in vitro (in words)” value [1] was “inactive”. For the same compound, the pIC50 [1] was < 4.00, the “activity at GyrB / DNA gyrase” value (E. coli DNA gyrase [2]) was “inactive” and the pIC50 (E. coli DNA gyrase [2]; [8]) was < 4.00.
For CO[C@@H]1[C@@H](OC(N)=O)[C@@H](O)[C@H](Oc2ccc3c(O)c(NC(=O)c4ccc(O)c(CC=C(C)C)c4)c(=O)oc3c2C)OC1(C)C [novobiocin], the “binding to allosteric binding site at Hsp90 CTD (in words)” value [7] is listed as “weakly bind” and the “inhibition of human TopoII (in words)” value (human TopoII) is listed as “inhibit”.
With O=c1nc(SCc2cc(F)cc(C(F)(F)F)c2)nc(SCc2ccccc2F)[nH]1 [Compound 5] the “activity at Hsp90 in vitro (in words)” value (human Hsp90α NTD [3]) was “inactive”, the pKd (human Hsp90α NTD [3]) was < 4.00 and the “activity at GyrB / DNA gyrase” value (E. coli DNA gyrase [2]) was “inactive”. For the same compound, the pIC50 (E. coli DNA gyrase [2]; [8]) was < 4.00.
